Laboratory results reported in article PMC4303209, “A novel phosphatidylinositol 3-kinase (PI3K) inhibitor directs a potent FOXO-dependent, p53-independent cell cycle arrest phenotype characterized by the differential induction of a subset of FOXO-regulated genes” (Breast Cancer Research : BCR, 2014).

System: MCF-7 breast cancer cells
Test: Microarray gene expression analysis (Agilent whole human genome 4 x 44K; compound vs DMSO, LIMMA log2 fold change)
Format: cell-based
Details: cell cycle genes

SMILES: Cn1ncc2c(N3CCOCC3)nc(-c3cccc(O)c3)nc21 [ETP-45658]
- CDC25B log2FC (Gene 994): -0.243
- CDC25C log2FC (Gene 995): 1.417
- CDC34 log2FC (Gene 997): 0.349
- CDC42 log2FC (Gene 998): 0.143
- CDK2 log2FC (Gene 1017): -0.519
- CDK3 log2FC (Gene 1018): -0.108
- CDK4 log2FC (Gene 1019): 0.113
- CDK5 log2FC (Gene 1020): -0.089
- CDK7 log2FC (Gene 1022): 0.920
- CDKN1A log2FC (Gene 1026): -1.401
- CDKN1B log2FC (Gene 1027): 1.129
- CDKN1C log2FC (Gene 1028): 0.689
- CDKN2A log2FC (Gene 1029): 0.240
- CDKN2D log2FC (Gene 1032): 0.891
- CDKN3 log2FC (Gene 1033): 0.104
- CENPA log2FC (Gene 1058): 0.094
- CENPE log2FC (Gene 1062): 1.101
- CENPF log2FC (Gene 1063): 1.562
- CETN2 log2FC (Gene 1069): 0.059
- CHD3 log2FC (Gene 1107): -0.048
- CHEK1 log2FC (Gene 1111): 0.461
- CKS1B log2FC (Gene 1163): 0.101
- CKS2 log2FC (Gene 1164): -0.752
- CLTC log2FC (Gene 1213): 0.237
- PLK3 log2FC (Gene 1263): -1.808
- ATF2 log2FC (Gene 1386): 0.857
- CREBL2 log2FC (Gene 1389): 0.823
- MAPK14 log2FC (Gene 1432): -0.291
- CSNK1A1 log2FC (Gene 1452): 0.166
- CSNK1D log2FC (Gene 1453): -0.308
- CSNK1E log2FC (Gene 1454): -0.533
- CSNK2A1 log2FC (Gene 1457): -0.545
- CTBP1 log2FC (Gene 1487): -0.371
- CTGF log2FC (Gene 1490): -0.597
- CYLD log2FC (Gene 1540): 0.499
- CYP27B1 log2FC (Gene 1594): -0.054
- DAPK3 log2FC (Gene 1613): -0.132
- DDB1 log2FC (Gene 1642): 0.227
- DDIT3 log2FC (Gene 1649): 2.364
- DDX3X log2FC (Gene 1654): -1.156
- DHCR24 log2FC (Gene 1718): -0.643
- DHFR log2FC (Gene 1719): 0.876
- DLG1 log2FC (Gene 1739): 0.053
- DMRT1 log2FC (Gene 1761): 0.148
- DYNC1I2 log2FC (Gene 1781): 0.828
- DNM2 log2FC (Gene 1785): -0.047
- DRD3 log2FC (Gene 1814): -0.082
- DUSP1 log2FC (Gene 1843): -0.931
- DUSP3 log2FC (Gene 1845): 0.560
- DYRK1A log2FC (Gene 1859): 0.448
- E2F1 log2FC (Gene 1869): -0.356
- E2F2 log2FC (Gene 1870): -0.581
- E2F3 log2FC (Gene 1871): -0.373
- E2F4 log2FC (Gene 1874): -0.621
- E2F5 log2FC (Gene 1875): 0.382
- E2F6 log2FC (Gene 1876): -0.321
- E4F1 log2FC (Gene 1877): 0.414
- ECT2 log2FC (Gene 1894): 1.058
- EDN3 log2FC (Gene 1908): -0.056
- EGF log2FC (Gene 1950): -0.024
- EGFR log2FC (Gene 1956): 0.311
- EIF4EBP1 log2FC (Gene 1978): -0.081
- EIF4G2 log2FC (Gene 1982): 0.237
- EMD log2FC (Gene 2010): -0.178
- ENSA log2FC (Gene 2029): -0.068
- EPS8 log2FC (Gene 2059): 0.516
- ERCC2 log2FC (Gene 2068): -0.566
- ERCC3 log2FC (Gene 2071): -0.084
- ERCC4 log2FC (Gene 2072): 0.186
- ERF log2FC (Gene 2077): 0.135
- ERH log2FC (Gene 2079): -0.238
- ERN1 log2FC (Gene 2081): -0.168
- ETS1 log2FC (Gene 2113): -0.590
- EZH2 log2FC (Gene 2146): 0.722
- FANCG log2FC (Gene 2189): -0.077
- FEN1 log2FC (Gene 2237): -0.980
- FER log2FC (Gene 2241): 0.332
- FGF2 log2FC (Gene 2247): 0.202
- FGF8 log2FC (Gene 2253): -0.131
- FGF10 log2FC (Gene 2255): 0.033
- FGFR1 log2FC (Gene 2260): -0.387
- FGFR3 log2FC (Gene 2261): -0.382
- FGFR2 log2FC (Gene 2263): 1.543
- FHL1 log2FC (Gene 2273): 0.046
- FOXC1 log2FC (Gene 2296): -0.876
- FOXM1 log2FC (Gene 2305): -0.360
- FLNA log2FC (Gene 2316): -0.229
- FNTB log2FC (Gene 2342): -0.574
- GAS1 log2FC (Gene 2619): 0.711
- GAS2 log2FC (Gene 2620): 0.183
- GAS6 log2FC (Gene 2621): -0.052
- GFI1 log2FC (Gene 2672): 0.062
- GNAI1 log2FC (Gene 2770): 1.186
- GNAI2 log2FC (Gene 2771): -0.343
- GNAI3 log2FC (Gene 2773): 0.669
- SFN log2FC (Gene 2810): -1.182
- GPR3 log2FC (Gene 2827): -0.277
- GPS1 log2FC (Gene 2873): -0.145
- GPS2 log2FC (Gene 2874): -0.087
- GSK3B log2FC (Gene 2932): -0.607
- GSPT1 log2FC (Gene 2935): -0.172
- MSH6 log2FC (Gene 2956): 0.235
- GTF2H1 log2FC (Gene 2965): 0.573
- H2AFX log2FC (Gene 3014): -1.128
- HCFC1 log2FC (Gene 3054): -0.769
- HDAC1 log2FC (Gene 3065): -0.487
- HDAC2 log2FC (Gene 3066): 0.164
- HGF log2FC (Gene 3082): -0.369
- HHEX log2FC (Gene 3087): -0.222
- FOXA1 log2FC (Gene 3169): 0.031
- HOXA13 log2FC (Gene 3209): 0.081
- HRAS log2FC (Gene 3265): -0.664
- PRMT2 log2FC (Gene 3275): 0.361
- HES1 log2FC (Gene 3280): -1.195
- HSF1 log2FC (Gene 3297): 0.106
- HSPA2 log2FC (Gene 3306): -1.351
- HSP90AA1 log2FC (Gene 3320): 1.066
- ID2 log2FC (Gene 3398): 1.025
- ID3 log2FC (Gene 3399): -0.237
- IFNG log2FC (Gene 3458): -0.055
- IGF1 log2FC (Gene 3479): 0.046
- IGF1R log2FC (Gene 3480): 0.075
- IGF2 log2FC (Gene 3481): 0.014
- IL1A log2FC (Gene 3552): -0.044
- IL1B log2FC (Gene 3553): -0.057
- IL8 log2FC (Gene 3576): -1.203
- IL12B log2FC (Gene 3593): -0.025
- ILF3 log2FC (Gene 3609): -0.460
- ILK log2FC (Gene 3611): -0.066
- INCENP log2FC (Gene 3619): -0.174
- ING2 log2FC (Gene 3622): 0.424
- INHA log2FC (Gene 3623): -0.101
- INSM1 log2FC (Gene 3642): -0.209
- INSR log2FC (Gene 3643): 0.664
- IRF6 log2FC (Gene 3664): 0.370
- ITGB1 log2FC (Gene 3688): 0.722
- JUN log2FC (Gene 3725): -0.912
- JUNB log2FC (Gene 3726): -0.596
- KIF11 log2FC (Gene 3832): 0.922
- KRT18 log2FC (Gene 3875): -0.481
- STMN1 log2FC (Gene 3925): 0.176
- LIF log2FC (Gene 3976): -1.818
- LIG1 log2FC (Gene 3978): -0.097
- LIG3 log2FC (Gene 3980): -0.509
- LLGL2 log2FC (Gene 3993): -0.345
- LRP5 log2FC (Gene 4041): -0.510
- MAD2L1 log2FC (Gene 4085): 0.081
- SMAD3 log2FC (Gene 4088): 0.254
- MCM3 log2FC (Gene 4172): -0.047
- MCM5 log2FC (Gene 4174): -0.158
- MCM7 log2FC (Gene 4176): 0.104
- MDM2 log2FC (Gene 4193): -0.059
- MDM4 log2FC (Gene 4194): 0.064
- RAB8A log2FC (Gene 4218): -0.531
- MIF log2FC (Gene 4282): 0.242
- MKI67 log2FC (Gene 4288): 0.040
